Data: patent publication US10035778B2, “Meta-azacyclic amino benzoic acid derivatives as pan integrin antagonists” (Saint Louis University, priority 2015, dated 2018)

Experiments:
Type in all cases: binding
[1] = target: Recombinant human integrin αvβ8 (Homo sapiens (Human), UniProt P06756+P26012); experiment: Solid Phase Receptor Assay (SPRA) for αvβ8 function; conditions: LAP-coated plate
Experimental: 6. Solid Phase Receptor Assay (SPRA) for αvβ8 Function
Recombinant human LAP protein (R&D Systems, Inc, 246-LP) diluted to 0.5 μg/mL in TBS+ buffer (25 mM Tris pH 7.4, 137 mM NaCl, 2.7 mM KCl, 1 mM CaCl2, 1 mM MgCl2, 1 mM MnCl2) was added to wells (50 μl/well) of a 96-well half-well transparent microtiter plate (Greiner 675061), and incubated overnight at 4° C. Wells were washed 3 times with 150 μL TBS+ and 150 μL of blocking buffer (TBS+ with 1% bovine serum albumin, Sigma A7906) were added. The plate was incubated for 1 hr at 37° C. and then washed 3× with TBS+. Recombinant human integrin αvβ8 (R&D Systems, 4135-AV) was diluted to 0.1 μg/mL in TBS+/0.1% bovine serum albumin. Compounds were diluted 1:100 into the integrin solution and 50 μL added to empty wells of the washed LAP-coated plate according to a standard template with each sample repeated in triplicate. After incubation for two hours at room temperature, the plate was washed 3× with 150 μL of TBS+. To each well, 50 μL of biotinylated anti-αv antibody (R&D Systems, BAF1219) at 1 μg/mL in TBS+/0.1% BSA were added and the plate was covered and incubated for 1 hr at room temperature. After washing the plate 3× with 150 μL of TBS+ buffer, 50 μL of streptavidin-conjugated horseradish peroxidase (R&D Systems, DY998) diluted in TBS+ blocking buffer were added to the wells and the plate incubated for 20 min at room temperature. The plate was washed 3× with TBS+ followed by 50 μL of TMB substrate (Sigma T4444) added to each well and the plate incubated for 20 min at room temperature. Plates were read by colorimetric detection at 650 nm wavelength using a Tecan Safire II plate reader. Concentration-response curves were constructed by non-linear regression (best fit) analysis, and IC50 values were calculated for each compound.

[2] = target: Recombinant human integrin αvβ3 (Homo sapiens (Human), UniProt P05106+P06756); experiment: Solid Phase Receptor Assay (SPRA) for αvβ3 function; conditions: vitronectin-coated plate
Experimental: 3. Solid Phase Receptor Assay (SPRA) for αvβ3 Function
Recombinant human vitronectin (R& D Systems, 2308-VN) diluted to 1 μg/mL in TBS+ buffer (25 mM Tris pH 7.4, 137 mM NaCl, 2.7 mM KCl, 1 mM CaCl2, 1 mM MgCl2, 1 mM MnCl2) was added to wells (50 μL/well) of a 96-well half-well transparent microtiter plate (Greiner 675061) and incubated overnight at 4° C. Wells were washed 3 times with 150 μL TBS+ and 150 μL of blocking buffer (TBS+ with 1% bovine serum albumin, Sigma A7906) were added. The plate was incubated for 1 hr at 37° C. and then washed 3× with TBS+ buffer. Recombinant human integrin αvβ3 (R&D Systems, 3050-AV) was diluted to 1 μg/mL in TBS+/0.1% bovine serum albumin. Compounds were diluted 1:100 into the integrin solution and then 50 μL added to empty wells of the washed vitronectin-coated plate according to a standard template with each sample repeated in triplicate. After incubation for two hours at room temperature, the plate was washed 3× with 150 μL of TBS+ buffer. To each well, 50 μL of biotinylated anti-αv antibody (R&D Systems, BAF1219) at 0.5 μg/mL in TBS+/0.1% BSA were added and the plate covered and incubated for 1 hr at room temperature. After washing the plate 3× with 150 μL of TBS+ buffer, 50 μL of streptavidin-conjugated horseradish peroxidase (R&D Systems, DY998) diluted in TBS+ blocking buffer were added to the wells and the plate incubated for 20 min at room temperature. The plate was washed 3× with TBS+ buffer followed by 50 μL of TMB substrate (Sigma, T4444) added to each well and the plate was incubated for 20 min at room temperature. Plates were read by colorimetric detection at 650 nm wavelength using a Tecan Safire II plate reader. Concentration-response curves were constructed by non-linear regression (best fit) analysis, and IC50 values were calculated for each compound.

[3] = target: Recombinant human integrin αvβ6 (Homo sapiens (Human), UniProt P06756+P18564); experiment: Solid Phase Receptor Assay (SPRA) for αvβ6 function; conditions: LAP-coated plate
Experimental: 5. Solid Phase Receptor Assay (SPRA) for αvβ6 Function
Recombinant human LAP (R&D Systems, 246-LP) diluted to 0.25 μg/mL in TBS+ buffer (25 mM Tris pH 7.4, 137 mM NaCl, 2.7 mM KCl, 1 mM CaCl2, 1 mM MgCl2, 1 mM MnCl2) was added to wells (50 μL/well) of a 96-well half-well transparent microtiter plate (Greiner 675061) and incubated overnight at 4° C. Wells were washed 3 times with 150 μL TBS+, and 150 μL of blocking buffer (TBS+ with 1% bovine serum albumin, Sigma A7906) were added. The plate was incubated for 1 hr at 37° C., and then washed 3× with TBS+ buffer. Recombinant human integrin αvβ6 (R&D Systems, 3817-AV) was diluted to 0.1 μg/mL in TBS+/0.1% bovine serum albumin. Compounds were diluted 1:100 into the integrin solution and then 50 μL added to empty wells of the washed LAP-coated plate according to a standard template with each sample repeated in triplicate. After incubation for two hours at room temperature, the plate was washed 3× with 150 μL of TBS+ buffer. To each well, 50 μL of biotinylated anti-αv antibody (R&D Systems, BAF1219) at 0.5 μg/mL in TBS+/0.1% BSA were added and the plate was covered and incubated for 1 hr at room temperature. After washing the plate 3× with 150 μL of TBS+ buffer, 50 μL of streptavidin-conjugated horseradish peroxidase (R&D Systems, DY998) diluted in TBS+ blocking buffer were added to the wells and the plate incubated for 20 min at room temperature. The plate was washed 3× with TBS+ buffer followed by 50 μL of TMB substrate (Sigma T4444) added to each well and the plate incubated for 20 min at room temperature. Plates were read by colorimetric detection at 650 nm wavelength using a Tecan Safire II plate reader. Concentration-response curves were constructed by non-linear regression (best fit) analysis, and IC50 values were calculated for each compound.

Recombinant human integrin αvβ6, sequence (P06756 31-992): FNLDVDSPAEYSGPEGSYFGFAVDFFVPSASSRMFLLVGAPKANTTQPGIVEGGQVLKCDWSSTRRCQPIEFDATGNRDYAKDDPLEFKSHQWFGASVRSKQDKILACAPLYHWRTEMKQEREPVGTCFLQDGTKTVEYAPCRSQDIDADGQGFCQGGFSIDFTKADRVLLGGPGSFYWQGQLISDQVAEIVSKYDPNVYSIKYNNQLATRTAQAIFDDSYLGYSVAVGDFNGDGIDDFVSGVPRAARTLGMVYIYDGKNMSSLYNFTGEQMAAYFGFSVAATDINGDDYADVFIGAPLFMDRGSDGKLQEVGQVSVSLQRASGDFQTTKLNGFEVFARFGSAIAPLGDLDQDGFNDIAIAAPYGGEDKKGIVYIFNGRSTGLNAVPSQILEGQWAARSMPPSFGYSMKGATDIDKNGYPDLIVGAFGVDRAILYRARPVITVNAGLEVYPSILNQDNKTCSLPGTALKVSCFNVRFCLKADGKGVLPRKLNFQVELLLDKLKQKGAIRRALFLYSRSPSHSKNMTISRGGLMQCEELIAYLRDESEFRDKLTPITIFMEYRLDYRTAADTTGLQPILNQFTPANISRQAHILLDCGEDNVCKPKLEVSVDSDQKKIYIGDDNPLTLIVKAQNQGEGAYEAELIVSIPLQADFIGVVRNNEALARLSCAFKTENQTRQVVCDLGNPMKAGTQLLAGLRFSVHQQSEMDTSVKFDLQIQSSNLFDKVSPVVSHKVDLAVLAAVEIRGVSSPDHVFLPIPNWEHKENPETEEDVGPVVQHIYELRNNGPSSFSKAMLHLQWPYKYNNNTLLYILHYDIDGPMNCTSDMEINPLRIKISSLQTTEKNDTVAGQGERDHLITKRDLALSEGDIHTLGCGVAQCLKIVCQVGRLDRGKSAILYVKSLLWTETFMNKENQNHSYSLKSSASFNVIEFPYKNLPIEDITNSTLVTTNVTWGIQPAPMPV
Recombinant human integrin αvβ6, sequence (P18564 22-707): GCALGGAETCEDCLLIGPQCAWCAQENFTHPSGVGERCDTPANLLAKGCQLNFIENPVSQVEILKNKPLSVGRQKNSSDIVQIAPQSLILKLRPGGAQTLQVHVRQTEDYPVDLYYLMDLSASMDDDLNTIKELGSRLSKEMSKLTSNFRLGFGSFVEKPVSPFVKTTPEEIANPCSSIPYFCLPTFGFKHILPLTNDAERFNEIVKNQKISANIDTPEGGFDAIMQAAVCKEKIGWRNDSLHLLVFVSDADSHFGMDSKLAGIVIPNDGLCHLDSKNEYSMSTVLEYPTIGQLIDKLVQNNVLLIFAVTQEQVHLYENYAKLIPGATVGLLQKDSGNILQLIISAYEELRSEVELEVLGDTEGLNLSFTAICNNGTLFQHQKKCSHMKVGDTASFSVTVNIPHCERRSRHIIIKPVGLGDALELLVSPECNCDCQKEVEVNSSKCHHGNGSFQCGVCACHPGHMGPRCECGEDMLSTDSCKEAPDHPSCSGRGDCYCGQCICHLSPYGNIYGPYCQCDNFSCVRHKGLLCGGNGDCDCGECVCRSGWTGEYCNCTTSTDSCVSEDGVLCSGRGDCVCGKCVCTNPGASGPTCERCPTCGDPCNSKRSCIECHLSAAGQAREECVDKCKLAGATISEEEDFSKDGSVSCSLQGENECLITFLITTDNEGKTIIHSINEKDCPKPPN
Recombinant human integrin αvβ8, sequence (P06756 31-992): as the sequence (P06756 31-992) above
Recombinant human integrin αvβ8, sequence (P26012 43-684): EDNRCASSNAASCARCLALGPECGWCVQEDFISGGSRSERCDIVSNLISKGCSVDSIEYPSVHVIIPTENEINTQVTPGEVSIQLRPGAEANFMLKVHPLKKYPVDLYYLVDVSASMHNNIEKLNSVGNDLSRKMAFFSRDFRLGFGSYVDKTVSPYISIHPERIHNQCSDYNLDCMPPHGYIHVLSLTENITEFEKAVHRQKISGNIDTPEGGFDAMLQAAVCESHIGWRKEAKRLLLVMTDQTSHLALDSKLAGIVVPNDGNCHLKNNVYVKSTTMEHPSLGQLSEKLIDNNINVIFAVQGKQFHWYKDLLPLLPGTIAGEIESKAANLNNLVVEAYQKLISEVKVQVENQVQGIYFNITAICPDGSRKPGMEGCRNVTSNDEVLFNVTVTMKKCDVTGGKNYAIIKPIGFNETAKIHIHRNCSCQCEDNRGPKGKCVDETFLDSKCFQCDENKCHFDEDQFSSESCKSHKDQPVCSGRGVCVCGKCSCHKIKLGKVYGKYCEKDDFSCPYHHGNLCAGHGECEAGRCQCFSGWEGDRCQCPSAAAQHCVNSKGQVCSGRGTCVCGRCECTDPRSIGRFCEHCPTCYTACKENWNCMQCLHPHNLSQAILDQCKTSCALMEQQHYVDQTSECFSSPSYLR
Recombinant human integrin αvβ3, sequence (P06756 31-992): as the sequence (P06756 31-992) above
Recombinant human integrin αvβ3, sequence (P05106 27-718): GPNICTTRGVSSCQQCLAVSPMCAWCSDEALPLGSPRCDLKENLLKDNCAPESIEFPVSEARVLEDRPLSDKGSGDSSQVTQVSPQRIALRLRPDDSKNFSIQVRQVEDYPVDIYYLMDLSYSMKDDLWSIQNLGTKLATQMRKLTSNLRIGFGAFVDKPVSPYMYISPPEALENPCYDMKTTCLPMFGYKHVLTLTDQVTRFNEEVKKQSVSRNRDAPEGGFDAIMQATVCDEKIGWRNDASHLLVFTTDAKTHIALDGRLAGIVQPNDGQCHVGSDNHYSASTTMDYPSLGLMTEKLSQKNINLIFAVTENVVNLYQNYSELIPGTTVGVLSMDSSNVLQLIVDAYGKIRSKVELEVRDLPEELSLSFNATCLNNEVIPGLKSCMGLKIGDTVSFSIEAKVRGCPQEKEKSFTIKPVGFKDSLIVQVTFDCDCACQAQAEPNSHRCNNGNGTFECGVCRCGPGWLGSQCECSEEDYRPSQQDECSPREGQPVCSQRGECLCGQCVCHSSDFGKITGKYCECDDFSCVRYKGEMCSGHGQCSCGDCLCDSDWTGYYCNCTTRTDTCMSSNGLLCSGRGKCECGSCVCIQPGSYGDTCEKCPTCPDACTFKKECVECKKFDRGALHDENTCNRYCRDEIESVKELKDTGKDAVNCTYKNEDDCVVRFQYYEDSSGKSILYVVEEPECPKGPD

Row | Structure (SMILES) | IC50 [1] [nM] | IC50 [2] [nM] | IC50 [3] [nM]
1 | O=C(O)C[C@H](NC(=O)CNC(=O)c1cc(O)cc(NC2=NCC(O)CN2)c1)c1cc(Br)cc(C(F)(F)F)c1 (stereo partly drawn) [Example 2, (3S)-3-(3-bromo-5-(trifluoromethyl)phenyl)-3-(2-(3-hydroxy-5-((5-hydroxy-1,4,5,6-tetrahydropyrimidin-2-yl)amino)benzamido)acetamido)propanoic acid] | 0.5 | 2.7 ± 0.4 | 0.3
2 | O=C(O)C[C@H](NC(=O)CNC(=O)c1cc(O)cc(NC2=NCC(O)CN2)c1)c1cc(Br)cc(Br)c1 (stereo partly drawn) [Example 1, (3S)-3-(3,5-dibromophenyl)-3-(2-(3-hydroxy-5-((5-hydroxy-1,4,5,6-tetrahydropyrimidin-2-yl)amino)benzamido)acetamido)propanoic acid] | 0.3 ± 0.1 | 2.3 ± 0.1 | 0.4
3 | Cc1cc(Cl)cc([C@H](CC(=O)O)NC(=O)CNC(=O)c2cc(O)cc(NC3=NCC(O)CN3)c2)c1 (stereo partly drawn) [Example 12, (3S)-3-[3-chloro-5-methyl-phenyl)-3-(2-(3-hydroxy-5-((5-hydroxy-1,4,5,6-tetrahydropyrimidin-2-yl)amino)benzamido)acetamido)propanoic acid] | 0.7 ± 0.1 | 4 | 0.6
4 | O=C(O)C[C@H](NC(=O)CNC(=O)c1cc(O)cc(NC2=NCC(O)CN2)c1)c1cc(Br)cc(OC(F)(F)F)c1 (stereo partly drawn) [Example 17, (3S)-3-(3-bromo-5-(trifluoromethoxy)phenyl)-3-(2-(3-hydroxy-5-((5-hydroxy-1,4,5,6-tetrahydropyrimidin-2-yl)amino)benzamido)acetamido)propanoic acid] | 0.3 ± 0.1 | 2.8 ± 1.1 | 0.7
5 | O=C(O)C[C@H](NC(=O)CNC(=O)c1cc(O)cc(NC2=NCC(O)CN2)c1)c1cc(Cl)cc(OC(F)(F)F)c1 (stereo partly drawn) [Example 16, (3S)-3-[3-chloro-5-(trifluoromethoxy)phenyl)-3-(2-(3-hydroxy-5-((5-hydroxy-1,4,5,6-tetrahydropyrimidin-2-yl)amino)benzamido)acetamido)propanoic acid] | 0.3 ± 0.1 | 3 ± 0.3 | 0.5
6 | O=C(O)C[C@H](NC(=O)CNC(=O)c1cc(O)cc(NC2=NCC(O)CN2)c1)c1cc(F)cc(Br)c1 (stereo partly drawn) [Example 13, (3S)-3-[3-bromo-5-fluoro-phenyl)-3-(2-(3-hydroxy-5-((5-hydroxy-1,4,5,6-tetrahydropyrimidin-2-yl)amino)benzamido)acetamido)propanoic acid] | 1 ± 0.3 | 1.7 | 0.4
7 | Cc1cc(Cl)cc([C@@H](CC(=O)O)NC(=O)CNC(=O)c2cccc(NC3=NCCN3)c2)c1O [Example C11, reference compound] | 11 | 9 | 4

Other lines, results leading:

Row | IC50 [1] [nM] | IC50 [2] [nM] | IC50 [3] [nM] | Structure (SMILES)
8 | 6 ± 3 | 4 ± 1 | 1 | N=C(N)Nc1cccc(C(=O)NCC(=O)NC(CC(=O)O)c2cc(F)cc(C(F)(F)F)c2)c1 (stereo not drawn) [Example C9, reference compound]
9 | 6 | 4 | 2 | Cc1cc(C)cc(C(CC(=O)O)NC(=O)CNC(=O)c2cccc(NC(=N)N)c2)c1 (stereo not drawn) [Example C4, reference compound]
10 | 66 | 4 | 17 ± 2 | N=C(N)Nc1cccc(C(=O)NCC(=O)NC(CC(=O)O)c2ccccc2)c1 (stereo not drawn) [Example C5, reference compound]
